Experimental data from ChEMBL document CHEMBL1121511, “Antileukemic compounds derived from the chemical modification of macrocyclic trichothecenes. 1. Derivatives of verrucarin A” (1980).

System: P388
Test: Antileukemic activity in vivo against P-388 mouse leukemia cell expressed as Dose
Assay type: functional

**Q.** With `CC(=O)OC1C(=O)OC[C@]23CC[C@H](C)C[C@H]2O[C@@H]2C[C@@H](OC(=O)/C=C\C=C\C(=O)OCCC1C)[C@@]3(C)C21CO1` (stereo partly specified) [VERRUCARIN A ACETATE] as the compound, how does the Dose read?
**A.** Its Dose is greater than 1.
